The values that follow come from patent US20240376121A1, “COMPOUNDS AND USES THEREOF” (Foghorn Therapeutics Inc., priority 2021, published 2024).

The target in one experiment is T1, HiBit-BRM fusion protein (Homo sapiens, UniProt P51531).
T1 construct: expressed in transfected cells
The experiment in a line: HiBiT-BRM cell-based degradation assay (Nano-Glo HiBiT Lytic Detection). As to conditions: stable HeLa cell line expressing HiBiT-BRM, 24 h incubation; for BRM HiBit Degradation Maximum (%): top dose 30 μM; for DC50: read-out: BRM HiBit Degradation IC50. The protocol:
(§1) Procedure: A stable HeLa cell line expressing HiBiT-BRM was generated. On day 0, 5000 cells were seeded in 40 μL of media into each well of 384-well cell culture plates. On day 1, cells were treated with 120 nL DMSO or 120 nL of 3-fold serially DMSO-diluted compounds (10 points in duplicate with 30 μM as final top dose). Subsequently plates were incubated for 24 h in a standard tissue culture incubator and equilibrated at room temperature for 15 minutes. Nano-Glo HiBiT Lytic Detection System (Promega N3050) reagent was freshly prepared and 20 ul was added to each well. Upon addition of this LgBit-containing reagent, the HiBiT and LgBiT proteins associate to form the luminescent NanoBiT luciferase. The plates were shaken for 10 minutes at room temperature and the bioluminescence read using an EnVision plate reader (PerkinElmer).
(§2) The degradation % was calculated using the following formula: % degradation=100%−100%×(LumSample−LumLC)/(LumHC−LumLC). DMSO treated cells are employed as High Control (HC) and 2 μM of a known BRM/BRG1 degrader standard treated cells are employed as Low Control (LC).
On the technique in general: HiBiT is a short tag that completes a luciferase, so light tracks the accessible tagged protein.

The target in experiment [1] is T2, HiBit-BRG1 fusion protein (Homo sapiens, UniProt P51532).
T2 construct: expressed in transfected cells
T2 sequence (P51532 whole entry, the tested form may be a part): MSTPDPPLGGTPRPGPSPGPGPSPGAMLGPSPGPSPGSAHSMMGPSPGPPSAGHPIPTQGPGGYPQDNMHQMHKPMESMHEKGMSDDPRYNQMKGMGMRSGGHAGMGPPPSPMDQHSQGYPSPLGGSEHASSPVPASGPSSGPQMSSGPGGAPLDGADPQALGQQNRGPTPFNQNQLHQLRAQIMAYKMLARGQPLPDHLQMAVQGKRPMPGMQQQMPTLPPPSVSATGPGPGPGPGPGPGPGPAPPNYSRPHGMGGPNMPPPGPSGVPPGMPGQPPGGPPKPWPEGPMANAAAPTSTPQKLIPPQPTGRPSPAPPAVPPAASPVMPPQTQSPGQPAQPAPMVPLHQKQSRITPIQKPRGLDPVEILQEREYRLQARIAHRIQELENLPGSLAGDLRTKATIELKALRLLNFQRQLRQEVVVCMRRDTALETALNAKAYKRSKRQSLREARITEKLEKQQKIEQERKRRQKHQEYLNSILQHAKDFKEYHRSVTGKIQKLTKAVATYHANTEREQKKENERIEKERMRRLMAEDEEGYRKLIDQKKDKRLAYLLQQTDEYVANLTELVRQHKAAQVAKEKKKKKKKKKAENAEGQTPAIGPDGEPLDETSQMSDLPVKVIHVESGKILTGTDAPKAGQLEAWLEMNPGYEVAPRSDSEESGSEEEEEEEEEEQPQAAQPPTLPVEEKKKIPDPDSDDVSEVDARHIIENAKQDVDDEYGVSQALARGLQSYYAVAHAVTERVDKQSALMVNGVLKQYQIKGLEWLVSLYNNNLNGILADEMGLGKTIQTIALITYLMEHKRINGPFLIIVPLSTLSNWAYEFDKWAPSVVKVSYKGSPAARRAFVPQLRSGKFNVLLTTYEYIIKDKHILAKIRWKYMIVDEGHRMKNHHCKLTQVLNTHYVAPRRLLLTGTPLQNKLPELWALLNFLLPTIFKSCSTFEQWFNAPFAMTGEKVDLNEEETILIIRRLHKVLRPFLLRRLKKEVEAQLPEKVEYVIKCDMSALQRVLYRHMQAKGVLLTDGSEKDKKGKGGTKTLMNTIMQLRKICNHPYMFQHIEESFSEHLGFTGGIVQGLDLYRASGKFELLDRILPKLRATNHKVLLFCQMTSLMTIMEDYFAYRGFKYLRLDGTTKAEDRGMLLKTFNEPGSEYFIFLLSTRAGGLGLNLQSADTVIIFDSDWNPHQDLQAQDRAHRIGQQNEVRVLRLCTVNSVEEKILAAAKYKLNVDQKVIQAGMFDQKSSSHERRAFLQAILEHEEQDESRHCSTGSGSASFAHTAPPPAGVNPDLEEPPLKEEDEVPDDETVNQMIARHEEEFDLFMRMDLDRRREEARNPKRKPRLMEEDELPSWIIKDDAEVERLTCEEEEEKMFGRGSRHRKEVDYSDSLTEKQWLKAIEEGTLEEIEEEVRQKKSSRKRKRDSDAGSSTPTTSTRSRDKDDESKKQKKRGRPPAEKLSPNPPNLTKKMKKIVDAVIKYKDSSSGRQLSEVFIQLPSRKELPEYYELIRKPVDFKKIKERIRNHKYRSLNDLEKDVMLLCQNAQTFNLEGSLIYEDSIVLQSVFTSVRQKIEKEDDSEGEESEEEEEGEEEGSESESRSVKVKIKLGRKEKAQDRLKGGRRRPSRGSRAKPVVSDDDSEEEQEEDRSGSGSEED
Put plainly: HiBiT-BRG1 cell-based degradation assay (Nano-Glo HiBiT Lytic Detection). As to conditions: stable HeLa cell line expressing HiBit-BRG1 and LgBit, 24 h incubation; for Dmax: top dose 30 μM, read-out: BRG1 HiBit Degradation Maximum (%); for DC50: read-out: BRMG1 HiBit Degradation IC50. The method, then:
as §1
For measurement of BRG1 degradation, a stable HeLa cell line expressing HiBit-BRG1 and LgBit was generated. The same protocol as above was then followed.
as §2

Each structure is given as a SMILES string.

T1 sequence (P51531 whole entry, the tested form may be a part): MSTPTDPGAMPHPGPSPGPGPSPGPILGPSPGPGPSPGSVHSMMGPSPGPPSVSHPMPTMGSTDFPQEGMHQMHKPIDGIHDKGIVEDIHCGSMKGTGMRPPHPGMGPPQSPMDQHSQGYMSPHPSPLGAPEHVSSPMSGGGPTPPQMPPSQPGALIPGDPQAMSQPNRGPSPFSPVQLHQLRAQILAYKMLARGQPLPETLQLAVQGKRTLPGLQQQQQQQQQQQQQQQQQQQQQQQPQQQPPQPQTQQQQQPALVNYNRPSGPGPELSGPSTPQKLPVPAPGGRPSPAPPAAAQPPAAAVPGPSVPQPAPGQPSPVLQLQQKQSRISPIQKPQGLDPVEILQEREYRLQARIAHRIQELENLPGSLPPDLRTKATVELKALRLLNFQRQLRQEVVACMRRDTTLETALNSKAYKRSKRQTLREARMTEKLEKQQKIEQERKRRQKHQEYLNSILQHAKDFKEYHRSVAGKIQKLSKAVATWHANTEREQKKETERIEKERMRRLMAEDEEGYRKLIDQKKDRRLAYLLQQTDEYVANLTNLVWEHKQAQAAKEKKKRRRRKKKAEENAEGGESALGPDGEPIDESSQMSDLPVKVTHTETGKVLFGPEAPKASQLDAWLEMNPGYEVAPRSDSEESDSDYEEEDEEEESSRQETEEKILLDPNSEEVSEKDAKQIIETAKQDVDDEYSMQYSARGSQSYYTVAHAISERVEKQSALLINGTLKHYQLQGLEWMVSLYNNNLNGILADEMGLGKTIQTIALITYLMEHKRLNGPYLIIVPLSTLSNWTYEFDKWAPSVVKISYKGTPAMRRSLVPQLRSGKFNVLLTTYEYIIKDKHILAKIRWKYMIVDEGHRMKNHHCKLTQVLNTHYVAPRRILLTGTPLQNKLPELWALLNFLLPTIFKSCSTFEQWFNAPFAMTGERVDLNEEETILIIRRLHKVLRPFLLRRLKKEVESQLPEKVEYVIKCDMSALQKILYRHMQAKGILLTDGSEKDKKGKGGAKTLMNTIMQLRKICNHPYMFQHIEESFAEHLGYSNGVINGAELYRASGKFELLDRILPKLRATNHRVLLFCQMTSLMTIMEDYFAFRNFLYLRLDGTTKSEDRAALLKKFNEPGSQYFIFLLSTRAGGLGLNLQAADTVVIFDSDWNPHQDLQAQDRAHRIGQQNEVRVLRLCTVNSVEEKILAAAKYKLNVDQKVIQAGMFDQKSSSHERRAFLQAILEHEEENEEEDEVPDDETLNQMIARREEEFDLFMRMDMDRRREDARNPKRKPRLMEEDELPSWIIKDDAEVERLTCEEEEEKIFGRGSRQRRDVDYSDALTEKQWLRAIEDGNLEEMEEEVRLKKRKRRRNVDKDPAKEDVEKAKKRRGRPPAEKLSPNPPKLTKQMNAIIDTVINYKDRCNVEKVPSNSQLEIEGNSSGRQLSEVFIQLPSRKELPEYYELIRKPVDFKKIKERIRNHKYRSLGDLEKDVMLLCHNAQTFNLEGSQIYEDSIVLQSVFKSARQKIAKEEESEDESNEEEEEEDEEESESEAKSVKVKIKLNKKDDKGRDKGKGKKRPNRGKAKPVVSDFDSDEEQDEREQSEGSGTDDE

`Cc1ncsc1-c1ccc([C@H](C)NC(=O)[C@@H]2C[C@@H](O)CN2C(=O)[C@@H](c2cc(OCCN3CC4(CC(c5sc6nnc(-c7ccccc7O)cc6c5C)C4)C3)no2)C(C)C)cc1` [Compound 88, (2S,4R)-4-hydroxy-1-((R)-2-(3-(2-(6-(3-(2-hydroxyphenyl)-5-methylthieno[2,3-c]pyridazin-6-yl)-2-azaspiro[3.3]heptan-2-yl)ethoxy)isoxazol-5-yl)-3-methylbutanoyl)-N-((S)-1-(4-(4-methylthiazol-5-yl)phenyl)ethyl)pyrrolidine-2-carboxamide]: at HiBit-BRM fusion protein, the “BRM HiBit Degradation Maximum (%)” value is “A (“A” indicates maximum degradation ≥ 75%)” and the DC50 was not below 10 nM. In experiment [1], the Dmax is less than 50% and the DC50 was not below 1000 nM.

For the compound `Cc1ncsc1-c1ccc([C@H](C)NC(=O)[C@@H]2C[C@@H](O)CN2C(=O)[C@@H](c2cc(C3CCN(C(=O)CN4CC(c5cc6cc(-c7ccccc7O)nnc6s5)C4)CC3)no2)C(C)C)cc1` [Compound 13], on HiBit-BRM fusion protein, the “BRM HiBit Degradation Maximum (%)” value is “B (“B” indicates maximum degradation ≥ 50%)” and the DC50 was not below 100 nM. In addition, in experiment [1], the Dmax is less than 50% and the DC50 is not below 1000 nM.

For `Cc1ncsc1-c1ccc([C@H](C)NC(=O)[C@@H]2C[C@@H](O)CN2C(=O)[C@H](c2cc(C3CCN(C(=O)CN4CC(c5cc6cc(-c7ccccc7O)nnc6s5)C4)CC3)no2)C(C)C)cc1` [Compound 12], at HiBit-BRM fusion protein, the “BRM HiBit Degradation Maximum (%)” value is “C (“C” indicates maximum degradation < 50%)” and the DC50 was not below 1000 nM. In experiment [1], the Dmax was less than 50% and the DC50 is not below 1000 nM.

Consider `Cc1ncsc1-c1ccc(CNC(=O)[C@@H]2C[C@@H](O)CN2C(=O)[C@@H](NC(=O)CCN2CC(c3cc4cc(-c5ccccc5O)nnc4s3)C2)C(C)(C)C)cc1` [Compound 26], for which, at HiBit-BRM fusion protein, the “BRM HiBit Degradation Maximum (%)” value was “C (“C” indicates maximum degradation < 50%)” and the DC50 is not below 1000 nM. Also, in experiment [1], the Dmax was less than 50% and the DC50 is not below 1000 nM.

For `Cc1ncsc1-c1ccc(CNC(=O)[C@@H]2C[C@@H](O)CN2C(=O)[C@@H](NC(=O)[C@H]2CC[C@@H](c3cnc(N4CCC(c5sc6nnc(-c7ccccc7O)cc6c5C)CC4)nc3)CC2)C(C)(C)C)cc1` [Compound 86, (2S,4R)-4-hydroxy-1-((S)-2-((1s,4R)-4-(2-(4-(3-(2-hydroxyphenyl)-5-methylthieno[2,3-c]pyridazin-6-yl)piperidin-1-yl)pyrimidin-5-yl)cyclohexane-1-carboxamido)-3,3-dimethylbutanoyl)-N-(4-(4-methylthiazol-5-yl)benzyl)pyrrolidine-2-carboxamide], at HiBit-BRM fusion protein, the “BRM HiBit Degradation Maximum (%)” value was “C (“C” indicates maximum degradation < 50%)” and the DC50 was not below 1000 nM. Further, in experiment [1], the Dmax is less than 50% and the DC50 was not below 1000 nM.

With `Cc1ncsc1-c1ccc([C@H](C)NC(=O)[C@@H]2C[C@@H](O)CN2C(=O)[C@H](c2cc(N3CCC(CN4CC(c5cc6cc(-c7ccccc7O)nnc6s5)C4)CC3)no2)C(C)C)cc1` [Compound 33], on HiBit-BRM fusion protein, the “BRM HiBit Degradation Maximum (%)” value is on record as “C (“C” indicates maximum degradation < 50%)” and the DC50 is not below 1000 nM. In addition, in experiment [1], the Dmax is less than 50% and the DC50 is not below 1000 nM.

Take `Cc1ncsc1-c1ccc([C@H](C)NC(=O)[C@@H]2C[C@@H](O)CN2C(=O)[C@@H](c2cc(N3C[C@@H]4C[C@H]3CN4C(=O)[C@H]3CCc4sc5nnc(-c6ccccc6O)cc5c4C3)no2)C(C)C)cc1` [Compound 43, (2S,4R)-4-hydroxy-1-((R)-2-(3-((1S,4S)-5-((S)-3-(2-hydroxyphenyl)-5,6,7,8-tetrahydrobenzo[4,5]thieno[2,3-c]pyridazine-6-carbonyl)-2,5-diazabicyclo[2.2.1]heptan-2-yl)isoxazol-5-yl)-3-methylbutanoyl)-N-((S)-1-(4-(4-methylthiazol-5-yl)phenyl)ethyl)pyrrolidine-2-carboxamide]: at HiBit-BRM fusion protein, the “BRM HiBit Degradation Maximum (%)” value is “C (“C” indicates maximum degradation < 50%)” and the DC50 is not below 1000 nM. For the same compound, in experiment [1], the Dmax was less than 50% and the DC50 is not below 1000 nM.

Turning to `Cc1ncsc1-c1ccc([C@H](C)NC(=O)[C@@H]2C[C@@H](O)CN2C(=O)[C@@H](c2cc(C34CC(C(=O)N5CCC(c6sc7nnc(-c8ccccc8O)cc7c6C)CC5)(C3)C4)no2)C(C)C)cc1` [Compound 64, (2S,4R)-4-hydroxy-1-((R)-2-(3-(3-(4-(3-(2-hydroxyphenyl)-5-methylthieno[2,3-c]pyridazin-6-yl)piperidine-1-carbonyl)bicyclo[1.1.1]pentan-1-yl)isoxazol-5-yl)-3-methylbutanoyl)-N-((S)-1-(4-(4-methylthiazol-5-yl)phenyl)ethyl)pyrrolidine-2-carboxamide], at HiBit-BRM fusion protein, the “BRM HiBit Degradation Maximum (%)” value is “A (“A” indicates maximum degradation ≥ 75%)” and the DC50 is less than 10 nM. In experiment [1], the Dmax was not below 75% and the DC50 was less than 10 nM.

Take `Cc1ncsc1-c1ccc(CNC(=O)[C@@H]2C[C@@H](O)CN2C(=O)[C@@H](NC(=O)CCN2CCC(c3cc4nnc(-c5ccccc5O)cc4s3)CC2)C(C)(C)C)cc1` [Compound 78, (2S,4R)-4-hydroxy-1-((S)-2-(3-(4-(3-(2-hydroxyphenyl)thieno[3,2-c]pyridazin-6-yl)piperidin-1-yl)propanamido)-3,3-dimethylbutanoyl)-N-(4-(4-methylthiazol-5-yl)benzyl)pyrrolidine-2-carboxamide]: on HiBit-BRM fusion protein, the “BRM HiBit Degradation Maximum (%)” value was “B (“B” indicates maximum degradation ≥ 50%)” and the DC50 was not below 100 nM. Besides, in experiment [1], the Dmax is not below 75% and the DC50 is not below 1000 nM.

`Cc1ncsc1-c1ccc([C@H](C)NC(=O)[C@@H]2C[C@@H](O)CN2C(=O)[C@@H](c2cc(N3CCC(CN4CCc5sc6nnc(-c7ccccc7O)cc6c5C4)CC3)no2)C(C)C)cc1` [Compound 92, (2S,4R)-4-hydroxy-1-((R)-2-(3-(4-((3-(2-hydroxyphenyl)-7,8-dihydropyrido[3′,4′:4,5]thieno[2,3-c]pyridazin-6(5H)-yl)methyl)piperidin-1-yl)isoxazol-5-yl)-3-methylbutanoyl)-N-((S)-1-(4-(4-methylthiazol-5-yl)phenyl)ethyl)pyrrolidine-2-carboxamide]: at HiBit-BRM fusion protein, the “BRM HiBit Degradation Maximum (%)” value is “C (“C” indicates maximum degradation < 50%)” and the DC50 is not below 1000 nM. Also, in experiment [1], the Dmax is not below 50% and the DC50 is not below 1000 nM.

As for `Cc1ncsc1-c1ccc([C@H](C)NC(=O)[C@@H]2C[C@@H](O)CN2C(=O)[C@@H](c2cc(OCCN3CCC(O)(c4cc5nnc(-c6ccccc6O)cc5s4)CC3)no2)C(C)C)cc1` [Compound 73, (2S,4R)-4-hydroxy-1-((R)-2-(3-(2-(4-hydroxy-4-(3-(2-hydroxyphenyl)thieno[3,2-c]pyridazin-6-yl)piperidin-1-yl)ethoxy)isoxazol-5-yl)-3-methylbutanoyl)-N-((S)-1-(4-(4-methylthiazol-5-yl)phenyl)ethyl)pyrrolidine-2-carboxamide], at HiBit-BRM fusion protein, the “BRM HiBit Degradation Maximum (%)” value was “A (“A” indicates maximum degradation ≥ 75%)” and the DC50 was not below 10 nM. For the same compound, in experiment [1], the Dmax was less than 50% and the DC50 is not below 1000 nM.
